Data on 28 compounds can be found in ChEMBL document CHEMBL5214942, “Discovery of biphenyls bearing thiobarbiturate fragment by structure-based strategy as Mycobacterium tuberculosis protein tyrosine phosphatase B inhibitors” (Bioorg Med Chem, 2022).

The structures appear in SMILES notation. ≈ marks a conversion by molar mass, not a printed value. Calls of active or inactive are those of the source. No cut-off for these calls is given here.

Data set [1] is described as follows: Cytotoxicity against African green monkey Vero cells after 48 hrs by MTT assay. In kind it is toxicity, cell-based. The following applies: African green monkey (Chlorocebus sabaeus).
Data set [2] is described as follows: Cytotoxicity against mouse J774.A1 cells after 48 hrs by MTT assay. It counts as toxicity, cell-based. A general note: Formazan colour is commonly taken as a measure of viable cells.
Data set [3] has as its system Mycobacterium tuberculosis. The data set can be described thus: Antimycobacterial activity against Mycobacterium tuberculosis H37Rv measured by microplate alamar blue assay. It counts as functional.
Data set [4] has as its target T1, Phosphotyrosine-protein phosphatase PTPB (Mycobacterium tuberculosis, UniProt P96830).
T1 sequence (P96830 whole entry): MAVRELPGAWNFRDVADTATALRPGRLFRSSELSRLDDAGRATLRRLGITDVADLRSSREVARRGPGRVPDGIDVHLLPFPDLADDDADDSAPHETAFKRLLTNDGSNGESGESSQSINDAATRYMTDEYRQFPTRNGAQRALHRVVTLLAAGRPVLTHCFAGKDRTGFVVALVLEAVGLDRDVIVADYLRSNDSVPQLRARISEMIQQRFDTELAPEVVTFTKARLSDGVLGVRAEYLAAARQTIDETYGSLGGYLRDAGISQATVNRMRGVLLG
In words: Inhibition of recombinant Mycobacterium tuberculosis H37Rv MptpB using pNPP as substrate incubated for 10 mins and measured by spectrophotometric method.

Data set [5] concerns the target T2, Phosphotyrosine-protein phosphatase PTPB (Mycobacterium tuberculosis) (UniProt P96830).
T2 sequence (whole entry): T1 sequence (P96830 whole entry)
The data set can be described thus: Inhibition of recombinant Mycobacterium tuberculosis H37Rv MptpB using pNPP as substrate incubated for 10 mins at 50 uM and measured by spectrophotometric method relative to control.

Data set [6] addresses T3, Tyrosine-protein phosphatase non-receptor type 1 (Homo sapiens, UniProt P18031).
T3 sequence (P18031 whole entry): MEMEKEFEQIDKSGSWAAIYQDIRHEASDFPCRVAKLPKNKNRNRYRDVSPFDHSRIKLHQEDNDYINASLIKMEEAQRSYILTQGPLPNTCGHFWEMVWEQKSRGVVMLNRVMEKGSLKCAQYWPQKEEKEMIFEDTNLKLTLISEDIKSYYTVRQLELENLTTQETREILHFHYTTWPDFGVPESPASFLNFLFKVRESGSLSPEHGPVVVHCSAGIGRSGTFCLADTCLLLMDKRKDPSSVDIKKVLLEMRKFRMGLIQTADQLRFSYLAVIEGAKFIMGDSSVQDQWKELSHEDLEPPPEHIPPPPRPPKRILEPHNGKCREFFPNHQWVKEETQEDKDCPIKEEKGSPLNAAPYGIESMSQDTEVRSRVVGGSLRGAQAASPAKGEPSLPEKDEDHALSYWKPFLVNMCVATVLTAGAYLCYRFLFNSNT
The data set can be described thus: Inhibition of recombinant human PTP1B using pNPP as substrate preincubated for 5 mins followed by substrate addition assessed as reduction in p-nitrophenol release.

Data set [7] has as its target T4, Tyrosine-protein phosphatase non-receptor type 1 (Homo sapiens) (UniProt P18031).
T4 sequence (whole entry): T3 sequence (P18031 whole entry)
The data set can be described thus: Inhibition of recombinant human PTP1B using pNPP as substrate preincubated for 5 mins followed by substrate addition assessed as reduction in p-nitrophenol release at 50 uM relative to control.

In data set [8] the target is T5, Low molecular weight protein-tyrosine phosphatase A (Mycobacterium tuberculosis) (UniProt P9WIA1).
T5 sequence (whole entry): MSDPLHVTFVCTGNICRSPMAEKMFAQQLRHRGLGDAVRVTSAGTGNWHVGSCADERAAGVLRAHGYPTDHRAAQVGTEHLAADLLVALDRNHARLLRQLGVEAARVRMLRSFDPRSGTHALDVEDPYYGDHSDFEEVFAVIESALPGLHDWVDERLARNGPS
In words: Inhibition of recombinant Mycobacterium tuberculosis H37Rv MptpA using pNPP as substrate at 50 uM incubated for 10 mins and measured by spectrophotometric method relative to control.

The test system of data set [9] is Mycobacterium tuberculosis. In words: Antimycobacterial activity against Mycobacterium tuberculosis infected in mouse J774.A1 cells assessed as reduction in intracellular bacterial burden at 1 to 10 ug/ml measured by colony counting method. It counts as functional, organism-based. The following applies: dose 1-10 µg/ml.
Data set [10] relates to Mycobacterium tuberculosis. The data set can be described thus: Antimycobacterial activity against Mycobacterium tuberculosis infected in mouse J774.A1 cells assessed as reduction in intracellular bacterial burden at 5 ug/ml measured by colony counting method. It counts as functional. Details: scale not given: the % may be the effect or the level left. The note with it: dose 5 µg/ml.

Data set [11] concerns the target T1, Phosphotyrosine-protein phosphatase PTPB. The data set can be described thus: Non-competitive inhibition of recombinant Mycobacterium tuberculosis H37Rv MptpB using pNPP as substrate.
Data set [12] addresses T6, Low molecular weight protein-tyrosine phosphatase A (Mycobacterium tuberculosis, UniProt P9WIA1).
T6 sequence (P9WIA1 whole entry): T5 sequence (whole entry)
In words: Inhibition of recombinant Mycobacterium tuberculosis H37Rv MptpA using pNPP as substrate incubated for 10 mins and measured by spectrophotometric method.

As for `CO[C@H]1/C=C/O[C@@]2(C)Oc3c(C)c(O)c4c(O)c(c(/C=N/N5CCN(C)CC5)c(O)c4c3C2=O)NC(=O)/C(C)=C\C=C\[C@H](C)[C@H](O)[C@@H](C)[C@@H](O)[C@@H](C)[C@H](OC(C)=O)[C@@H]1C` [RIFAMPIN], the IC50 at 48 h in [1] and in data set [2] was more than 64 µg/mL in each case. The same compound returned an MIC in data set [3] of 0.037 µg/mL (≈ 0.045 µM).
For the compound `O=C(C(c1ccccc1)S(=O)(=O)O)N1CCCC2CCCCC21` (configuration not stated), the IC50 in data set [4] was 0.018 µM.
On to `O=C1NC(=S)NC(=O)C1=Cc1cc(-c2cc3ccccc3s2)ccc1OCc1ccc(Cl)cc1`, for which the inhibition in data set [5] came to 57.5%.
Regarding `NNC(=O)c1ccncc1` [ISONIAZID], the IC50 at 48 h in [1] and in data set [2] was more than 64 µg/mL each time. In data set [3], inhibition of growth (MIC) required 0.072 µg/mL (≈ 0.525 µM).
Consider `O=C1NC(=S)NC(=O)C1=Cc1ccc(OCc2ccc(Cl)cc2)c(-c2cc(Cl)c(O)c(Cl)c2)c1`, for which the IC50 at 48 h was more than 64 µg/mL in [1] and 13.9 µg/mL (≈ 26 µM) in [2]. For the same compound, the IC50 was found to be 3.43 µM in data set [6] and 5.95 µM in data set [4]. Besides, the inhibition was 98.2% in data set [7], 69.6% in data set [8] and 84.4% in [5]. In data set [3], this compound displayed an MIC of more than 32 µg/mL.
As to `O=C1NC(=S)NC(=O)C1=Cc1cc(-c2ccc(OC(F)(F)F)cc2)ccc1OCc1ccc(Cl)cc1`, in [5], the inhibition worked out at 65%.
With `O=C1NC(=S)NC(=O)C1=Cc1ccc(OCc2ccc(Cl)cc2)cc1-c1cc(Cl)c(O)c(Cl)c1`, the IC50 at 48 h in [1] was more than 64 µg/mL; in [2], 57 µg/mL (≈ 107 µM). In addition, the IC50 in [6] came out at 34.1 µM; in data set [4], 3.62 µM. For the same compound, the inhibition in data set [7] was 78.6%; in [8] it was 49%; in data set [5], 95%. The compound further yielded an MIC in [3] of more than 32 µg/mL.
For `O=C1NC(=S)NC(=O)C1=Cc1cc(OCc2ccc(Cl)cc2)cc(-c2cc(Cl)c(O)c(Cl)c2)c1`, the IC50 at 48 h was more than 64 µg/mL in [1] and 39.9 µg/mL (≈ 74.7 µM) in [2]. Moreover, the IC50 in data set [6] worked out at 7.81 µM; in [4], 4.7 µM. The inhibition in [7] was 93.7%; in [8], 39.7%; in [5], 91.6%. In data set [3], this compound yielded an MIC of more than 32 µg/mL.
In the case of `O=C1NC(=S)NC(=O)C1=Cc1cc(-c2ccc(Cl)cc2)ccc1OCc1ccc(Cl)cc1`, in data set [5], the inhibition stood at 77.5%.
Consider `O=C1NC(=S)NC(=O)C1=Cc1cc(Br)ccc1OCc1ccc(Cl)cc1`, for which the inhibition in data set [5] was found to be 63%. The IC50 in [4] is 22.4 µM.
Take `Cc1onc(C(=O)O)c1-c1cccc(-c2cc(Cl)c(O)c(Cl)c2)c1`: the IC50 in [4] amounted to 2.98 µM.
As to `O=C1NC(=S)NC(=O)C1=Cc1cc(-c2cc(Cl)c(O)c(Cl)c2)ccc1OCc1cc(F)cc(F)c1`, the figures for the IC50 at 48 h in data set [1] and in data set [2] were more than 64 µg/mL and 15.4 µg/mL (≈ 28.8 µM), respectively. In addition, the values for the IC50 in data set [6] and in data set [4] were 6.28 µM and 5.32 µM, respectively. The inhibition stood at 92.3% in data set [7] and 89.1% in [5]. This compound also registered an MIC in data set [3] of more than 32 µg/mL.
On to `O=C1NC(=S)NC(=O)C1=Cc1cc(-c2ccccc2)ccc1OCc1ccc(Cl)cc1`, for which the inhibition in data set [5] worked out at 43.9%.
On to `O=C1NC(=S)NC(=O)C1=Cc1cc(-c2ccc3occc(=O)c3c2)ccc1OCc1ccc(Cl)cc1`, for which the inhibition in data set [5] was 73%.
Turning to `O=C1NC(=S)NC(=O)C1=Cc1cc(-c2cc(Cl)c(O)c(Cl)c2)ccc1OCc1ccc(Cl)cc1`, the IC50 at 48 h in data set [1] is more than 64 µg/mL; in [2], 13 µg/mL (≈ 24.4 µM). Moreover, the IC50 in data set [6] was 5.16 µM; in [4] it was 1.18 µM; in data set [12] it was 8.97 µM. The inhibition in data set [7] was 98.3%; in [8] it was 86.4%; in data set [5] it was 95.9%. The outcome in data set [9] was Active. This compound also displayed an MIC in [3] of more than 32 µg/mL. Further, the Activity in data set [10] is reported as 90%. Besides, the Ki in data set [11] stood at 1.01 µM.
For `O=C1NC(=S)NC(=O)C1=Cc1cc(-c2ccc(O)c(Cl)c2)ccc1OCc1ccc(Cl)cc1`, the inhibition in data set [5] came out at 72.7%.
Take `C/C=C(\C)[C@@H]1C(C)=C[C@@H]2CC(C)=CC[C@H]2[C@@H]1/C=C/C=C(\C)[C@@H](O)[C@@H](C)C(=O)O`: in [4], the IC50 worked out at 1.05 µM.
For the compound `COC(=O)c1ccc(-c2ccc(OCc3ccc(Cl)cc3)c(C=C3C(=O)NC(=S)NC3=O)c2)cc1`, the inhibition in data set [5] is 63.3%.
Regarding `O=C1NC(=S)NC(=O)C1=Cc1cc(-c2ccc(C(F)(F)F)cc2)ccc1OCc1ccc(Cl)cc1`, the IC50 at 48 h in data set [1] is more than 64 µg/mL; in data set [2], 14.8 µg/mL (≈ 28.6 µM). Further, the IC50 turned out to be 3.93 µM in data set [6], 3.82 µM in data set [4] and 20 µM in [12]. Also, the inhibition in [7] worked out at 81.4%; in data set [8], 74.2%; in [5], 86.4%. The same compound returned an MIC in data set [3] of more than 32 µg/mL.
In the case of `O=C1NC(=S)NC(=O)C1=Cc1ccc(-c2cc(Cl)c(O)c(Cl)c2)c(OCc2ccc(Cl)cc2)c1`, the inhibition in data set [5] is 75.2%.
Same read-out and setting: in the case of `O=C1NC(=O)C(=Cc2cc(-c3cc(Cl)c(O)c(Cl)c3)ccc2OCc2ccc(Cl)cc2)C(=O)N1` it was 16.2%; in that of `Cc1cc(-c2ccc(OCc3ccc(Cl)cc3)c(C=C3C(=O)NC(=S)NC3=O)c2)cc(C)c1O`, 59.2%.
The same measure, in the same setting: the same measure for `O=C1NC(=S)NC(=O)C1=Cc1cc(-c2ccc(O)c(F)c2)ccc1OCc1ccc(Cl)cc1`: 65%.
For `CN1C(=O)C(=Cc2cc(-c3cc(Cl)c(O)c(Cl)c3)ccc2OCc2ccc(Cl)cc2)C(=O)N(C)C1=S`, in data set [5], the inhibition is 87%. Besides, the IC50 in data set [4] is 14.1 µM.
In the case of `O=C1NC(=S)NC(=O)C1=Cc1c(OCc2ccc(Cl)cc2)cccc1-c1cc(Cl)c(O)c(Cl)c1`, the inhibition in [5] was 45.5%.
On the same count and under the same terms, in the case of `COc1ccc(-c2ccc(OCc3ccc(Cl)cc3)c(C=C3C(=O)NC(=S)NC3=O)c2)cc1` it was 42.7%; in that of `CN1C(=O)C(=Cc2cc(-c3cc(Cl)c(O)c(Cl)c3)ccc2OCc2ccc(Cl)cc2)C(=O)N(C)C1=O`, 51.9%.
As to `O=C1NC(=S)NC(=O)C1=Cc1cc(-c2cc(Cl)c(O)c(Cl)c2)ccc1OCc1ccccc1`, the IC50 at 48 h in [1] was more than 64 µg/mL; in data set [2], 3.44 µg/mL (≈ 6.89 µM). In addition, the IC50 was 27.3 µM in [6] and 3.81 µM in data set [4]. The inhibition worked out at 87.7% in data set [7], 14.6% in [8] and 95.4% in data set [5]. Further, it took 25.1 µg/mL (≈ 50.2 µM) to inhibit growth in data set [3] (MIC).

As a reminder, the IC50 is the concentration that inhibits the measured activity by half. A word on the MIC: it is the lowest concentration found to suppress growth. The inhibition is how much of the control response was suppressed. Usually Ki stands for a dissociation constant, usually derived from enzyme kinetics or from competition with a known ligand.
